Patent US20250084091A1, “INHIBITORS OF SARS-COV-2” (The Texas A&M University System, priority 2021, published 2025)
Where two headings read alike, the source gives them in different places.

Experiments:
[1] = biological target: SARS-CoV-2 main protease (Mpro) (Severe acute respiratory syndrome coronavirus 2, UniProt P0DTD1); assay: biochemical
HeLa-ACE2 cells = assay: cells; format: cell-based; settings: Table 2, total cell count in infected plates
[2] = test system: SARS-CoV-2 (strain USA-WA1/2020); assay: microbe, parasite or virus in culture; format: cell-based
[3] = Uninfected host cell cytotoxicity counter screen; format: cell-based; settings: human
Experimental: Uninfected host cell cytotoxicity counter screen: HeLa-ACE2 cells were maintained as described for the infection assay and seeded in the assay-ready plates at 400 cells/well. Plates were incubated for 24 hours at 37° C. 5% CO2. To assess cell viability, the Image-iT DEAD green reagent was used according to manufacturer instructions. Cells were fixed with 4% paraformaldehyde, and counterstained with DAPI. Fixed cells are imaged as described above.
Viral replication data analysis: Data from the primary screen and the host cell cytotoxicity screen are normalized to neutral (DMSO) […] inhibitor controls (2.5 μM Remdesivir for antiviral effect and 10 μM puromycin for infected host cell toxicity). For the uninfected host cell cytotoxicity counter-screen 40 μM puromycin is used as the positive control. Concentration response experiments will be tested in triplicate.

[4] = Severe acute respiratory syndrome coronavirus 2, Table 2, SARS-CoV-2 infected HeLa-ACE2 cells, read-out: CoV-2 HeLa EC50
[5] = Severe acute respiratory syndrome coronavirus 2, HeLa-ACE2, read-out: CoV-2 HeLa EC50, Table 2, SARS-CoV-2 infected HeLa-ACE2 cells
[6] = Table 2, uninfected cells, 24 hours, read-out: Uninfected HeLa-ACE2 CC50

Structure (SMILES) | IC50 ([1]; Table 2, read-out: Enzyme IC50) [µM] | EC50 (HeLa-ACE2 cells) [µM] | EC50 [2, 4] [µM] | CC50 at 24 h [3] [µM] | EC50 [2, 5] [µM] | IC50 ([1]; Enzyme IC50, Table 2) [µM] | IC50 ([1]; Enzyme IC50, Table 3, select example compounds against mpro) [µM] | EC50 ([2]; Severe acute respiratory syndrome coronavirus 2, HeLa, read-out: CoV-2 HeLa EC50, Table 3) [µM] | CC50 at 24 h [3, 6] [µM]
O=C(c1cncc(O)c1)N1CCN(C(c2ccccc2)c2ccccc2)CC1 [AA-599, (4-benzhydrylpiperazin-1-yl)(5-hydroxypyridin-3-yl)methanone] | 1.6 | > 9.61 | 6.03 | > 39.8 |  |  |  |  | 
O=C(c1cnccc1Cl)N1CCN(C(c2ccccc2)c2ccccc2)CC1 [AA-605, (4-benzhydrylpiperazin-1-yl)(4-chloropyridin-3-yl)methanone] | 1.3 | 7.17 | 3.03 | > 39.8 |  |  |  |  | 
O=C(c1cc(Br)cnc1Cl)N1CCN(C(c2ccccc2)c2ccccc2)CC1 [AA-606, (4-benzhydrylpiperazin-1-yl)(5-bromo-2-chloropyridin-3-yl)methanone] | > 10 | > 9.61 |  | > 39.8 | > 9.61 |  |  |  | 
Cc1ccncc1C(=O)N1CCN(C(c2ccccc2)c2ccccc2)CC1 [AA-611, (4-benzhydrylpiperazin-1-yl)(4-methylpyridin-3-yl)methanone] | 2.5 | > 9.61 |  | > 39.8 | > 9.61 |  |  |  | 
Cc1cncc(C(=O)N2CCC(N(c3ccccc3)c3ccccc3)CC2)c1 [AA-613, (4-(diphenylamino)piperidin-1-yl)(5-methylpyridin-3-yl)methanone] | 0.82 | > 9.61 |  | > 39.8 | > 9.61 |  |  |  | 
Cc1cncc(C(=O)N2CCN(C(c3ccccc3)c3ccc(F)cc3)CC2)c1 (stereo not shown) [AA-620, (4-((4-fluorophenyl)(phenyl)methyl)piperazin-1-yl)(5-methylpyridin-3-yl)methanone] | 0.26 | 0.841 | 0.717 | > 39.8 |  |  |  |  | 
CC(=O)Nc1cncc(C(=O)N2CCN(C(c3ccccc3)c3ccccc3)CC2)c1 [AA-624, N-(5-(4-benzhydrylpiperazine-1-carbonyl)pyridin-3-yl)acetamide] | 0.89 | > 9.61 | 2.62 | > 39.8 |  |  |  |  | 
Cc1cncc(C(=O)N2CC3CCC(C2)N3C(c2cccc(F)c2)c2cccc(F)c2)c1 [AA-625, (8-(bis(3-fluorophenyl)methyl)-3,8-diazabicyclo[3.2.1]octan-3-yl)(5-methylpyridin-3-yl)methanone] |  | 0.085 |  |  | 0.072 | 0.033 | 0.004 | 0.072 | 26.5
CC(=O)Nc1cccc(C(c2ccccc2)N2C3CCC2CN(C(=O)c2cncc(C)c2)C3)c1 (stereo not shown) [AA-627, N-(3-((3-(5-methylnicotinoyl)-3,8-diazabicyclo[3.2.1]octan-8-yl)(phenyl)methyl)phenyl)acetamide] |  | > 9.61 |  |  | 3 | 0.048 |  |  | > 39.8
CNC(=O)c1cccc(C(c2ccccc2)N2C3CCC2CN(C(=O)c2cncc(C)c2)C3)c1 (stereo not shown) [AA-630, N-methyl-3-((3-(5-methylnicotinoyl)-3,8-diazabicyclo[3.2.1]octan-8-yl)(phenyl)methyl)benzamide] |  | 8.56 |  |  | 7.73 | 1.37 |  |  | > 39.8
CC(=O)Nc1cncc(C(=O)N2CC3CCC(C2)N3C(c2ccccc2)c2ccccc2)c1 [AA-633, N-(5-(8-benzhydryl-3,8-diazabicyclo[3.2.1]octane-3-carbonyl)pyridin-3-yl)acetamide] |  | 2.77 |  |  | 1.58 | 0.64 |  |  | > 39.8
Cc1cncc(C(=O)N2CCN(C(c3ccccc3)c3ccccc3)CC2=O)c1 [AA-637, 4-benzhydryl-1-(5-methylnicotinoyl)piperazin-2-one] | 0.09 | > 9.61 |  | > 39.8 | > 9.61 |  |  |  | 
Cc1cnc(F)c(C(=O)N2CC3CCC(C2)N3C(c2ccccc2)c2ccccc2)c1 [AA-638, (8-benzhydryl-3,8-diazabicyclo[3.2.1]octan-3-yl)(2-fluoro-5-methylpyridin-3-yl)methanone] |  | 0.711 |  |  | 0.893 | 0.22 |  |  | > 39.8
O=C(c1cncc2nc[nH]c12)N1CC2CCC(C1)N2C(c1ccccc1)c1ccccc1 [AA-642, (8-benzhydryl-3,8-diazabicyclo[3.2.1]octan-3-yl)(1H-imidazo[4,5-c]pyridin-7-yl)methanone] |  | 3.24 |  |  | 1.05 | 0.21 |  |  | > 39.8
O=C(c1cncc2cc[nH]c12)N1CC2CCC(C1)N2C(c1ccccc1)c1ccccc1 [AA-643, (8-benzhydryl-3,8-diazabicyclo[3.2.1]octan-3-yl)(1H-pyrrolo[3,2-c]pyridin-7-yl)methanone] |  | 1.05 |  |  | 0.348 | 0.058 |  |  | 21.5
Cc1cncc(C(=O)N2CC3CCC(C2)N3C(c2ccccc2)c2ccccc2)n1 [AA-658, (8-benzhydryl-3,8-diazabicyclo[3.2.1]octan-3-yl)-(6-methylpyrazin-2-yl)methanone] |  | > 9.61 |  |  | 1.95 | 0.8 |  |  | > 39.8
O=C(c1cccnc1)N1CCN(C(c2ccccc2)c2cccnc2)CC1 (stereo not shown) [MKP-1183, 1-[phenyl(pyridin-3-yl)methyl]-4-(pyridine-3-carbonyl)piperazine] | 1.7 | > 9.61 | 4.34 | > 39.8 |  |  |  |  | 
O=C(c1cncc(F)c1)N1CCN(C(c2ccccc2)c2cccnc2)CC1 (stereo not shown) [MKP-1192, 1-(5-fluoropyridine-3-carbonyl)-4-[phenyl(pyridin-3-yl)methyl]piperazine] | 1.93 | > 9.61 | 4.83 | > 39.8 |  |  |  |  | 
O=C(c1cncc(Cl)c1)N1CCN(C(c2ccccc2)c2cccnc2)CC1 (stereo not shown) [MKP-1193, 1-(5-chloropyridine-3-carbonyl)-4-[phenyl(pyridin-3-yl)methyl]piperazine] | 0.45 | > 9.61 | 0.81 | > 39.8 |  |  |  |  | 
COc1cncc(C(=O)N2CCN(C(c3ccccc3)c3cccnc3)CC2)c1 (stereo not shown) [MKP-1194, 1-(5-methoxypyridine-3-carbonyl)-4-[phenyl(pyridin-3-yl)methyl]piperazine] | 1.1 | > 9.61 | 2.12 | > 39.8 |  |  |  |  | 
O=C(c1cncc(C(F)(F)F)c1)N1CCN(C(c2ccccc2)c2cccnc2)CC1 (stereo not shown) [MKP-1195, 1-[phenyl(pyridin-3-yl)methyl]-4-[5-(trifluoromethyl)pyridine-3-carbonyl]piperazine] | 2.68 | > 9.61 | 8.77 | > 39.8 |  |  |  |  | 
COc1cccc(C(c2ccccc2)N2CCN(C(=O)c3cncc(F)c3)CC2)c1 (stereo not shown) [MKP-1204, 1-(5-fluoropyridine-3-carbonyl)-4-[(3-methoxyphenyl)(phenyl)methyl] piperazine] | 2.3 | > 9.61 | 6.66 | > 39.8 |  |  |  |  | 
O=C(c1cccnc1)N1CCN(C(c2ccccc2)c2ccsc2)CC1 (stereo not shown) [MKP-1215, 1-[phenyl(thiophen-3-yl)methyl]-4-(pyridine-3-carbonyl)piperazine] | 4.5 | > 9.61 | 2.81 | > 39.8 |  |  |  |  | 
O=C(c1cncc(Br)c1)N1CCN(C(c2ccccc2)c2ccsc2)CC1 (stereo not shown) [MKP-1220, 1-(5-bromopyridine-3-carbonyl)-4-[phenyl(thiophen-3-yl)methyl]piperazine] | 0.25 | 2.64 | 0.884 | > 39.8 |  |  |  |  | 
O=C(c1cncc(Cl)c1)N1CCN(C(c2ccccc2)c2ccsc2)CC1 (stereo not shown) [MKP-1221, 1-(5-chloropyridine-3-carbonyl)-4-[phenyl(thiophen-3-yl)methyl]piperazine] | 0.33 | 0.556 | 0.831 | > 39.8 |  |  |  |  | 
Cc1cncc(C(=O)N2CCN(C(c3ccccc3)c3ccsc3)CC2)c1 (stereo not shown) [MKP-1222, 1-(5-methylpyridine-3-carbonyl)-4-[phenyl(thiophen-3-yl)methyl]piperazine] | 0.37 | 1.24 | 1.4 | > 39.8 |  |  |  |  | 
O=C(c1cncc(Cl)c1)N1CCN(C(c2ccccc2)c2cccc(F)c2)CC1 (stereo not shown) [MKP-1227, 1-(5-chloropyridine-3-carbonyl)-4-[(3-fluorophenyl)(phenyl)methyl]piperazine] | 0.088 | 0.614 | 0.457 | > 39.8 |  |  |  |  | 
N#Cc1cncc(C(=O)N2CCN(C(c3ccccc3)c3ccccc3)CC2)c1 [MKP-1230, 5-[4-(diphenylmethyl)piperazine-1-carbonyl]pyridine-3-carbonitrile] | 1.3 | > 9.61 | 2.8 | > 39.8 |  |  |  |  | 
Cc1cncc(C(=O)N2CCN(C(c3ccccc3)c3cccc(C(F)(F)F)c3)CC2)c1 (stereo not shown) [MKP-1276, 1-(5-methylpyridine-3-carbonyl)-4-{phenyl[3-(trifluoromethyl)phenyl]methyl} piperazine] | 0.211 | 3.41 | 0.637 | 22.9 |  |  |  |  | 
